{
  "source": "paper PMC6264335",
  "about": "“Synthesis of Quinolin-2-one Alkaloid Derivatives and Their Inhibitory Activities against HIV-1 Reverse Transcriptase” (Molecules, 2011)",
  "note": "“And” between values parts separate entries of the source, which are not always exact repeats. Equal entries are not always repeated.",
  "data": [
    {"target": "HIV-1 reverse transcriptase (RT)", "assay": "not given", "parameters": "method as in PMID 8778237", "conditions": "cited from earlier work", "units": {"IC50": "µM"}, "values": [
      {"compound": "CC(C)=CCOc1c(CC=C(C)C)c(=O)[nH]c2ccccc12", "note": "[Compound 3]", "IC50": 8}
    ]},
    {"target": "recombinant HIV-1 RT (Human immunodeficiency virus type 1 group M subtype B, UniProt P04585)", "assay": "HIV-1 RT inhibitory assay (ELISA RT kit, Roche)", "conditions": "IC50 (effective concentration that inhibits 50% of HIV-1 RT), mean of two independent experiments", "experimental": "HIV-1 reverse transcriptase (RT) activity was measured using a commercially available ELISA RT kit (Roche) according to the instructions of the manufacturer. The compounds were incubated with DIG-labeled reaction mixture at 37 °C for 2 h, then anti-DIG-POD solution was added, followed by substrate ABTS.", "values": [
      {"compound": "Cc1cc(C)cc(Oc2cc(=O)[nH]c3ccc(Cl)cc23)c1", "note": "[Compound 4d2, 6-Chloro-4-(3,5-dimethylphenoxy)quinolin-2(1H)-one]", "IC50": "0.15 µM"},
      {"compound": "O=c1cc(-c2ccccc2F)c2cc(Cl)ccc2[nH]1", "note": "[Compound 5b, 6-Chloro-4-(2-fluorophenyl)quinolin-2(1H)-one]", "IC50": "> 100 µM"},
      {"compound": "Cc1cc(C)cc(Sc2cc(=O)[nH]c3ccc(Cl)cc23)c1", "note": "[Compound 4a2, 6-Chloro-4-(3,5-dimethylphenylthio)quinolin-2(1H)-one]", "IC50": "0.21 µM"},
      {"compound": "O=c1cc([S+]([O-])c2ccccc2)c2cc(Cl)ccc2[nH]1", "note": "(stereo not shown) [Compound 4b1, 6-Chloro-4-(phenylsulfinyl)quinolin-2(1H)-one]", "IC50": "8.9 µM"},
      {"compound": "Cc1cc(C)cc([S+]([O-])c2cc(=O)[nH]c3ccc(Cl)cc23)c1", "note": "(stereo not shown) [Compound 4b2, 6-Chloro-4-(3,5-dimethylphenylsulfinyl)quinolin-2(1H)-one]", "IC50": "2.6 µM"},
      {"compound": "O=c1cc(S(=O)(=O)c2ccccc2)c2cc(Cl)ccc2[nH]1", "note": "[Compound 4c1, 6-Chloro-4-(phenylsulfonyl)quinolin-2(1H)-one]", "IC50": "49 µM"},
      {"compound": "O=c1cc(-c2ccccc2)c2cc(Cl)ccc2[nH]1", "note": "[Compound 5a, 6-Chloro-4-phenylquinolin-2(1H)-one]", "IC50": "> 100 µM"},
      {"compound": "O=c1cc(Oc2ccccc2)c2cc(Cl)ccc2[nH]1", "note": "[Compound 4d1, 6-Chloro-4-phenoxyquinolin-2(1H)-one]", "IC50": "3 µM"},
      {"compound": "Cc1cc(C)cc(Sc2cc(=O)[nH]c3ccccc23)c1", "note": "[Compound 4a3, 4-(3,5-dimethylphenylthio)quinolin-2(1H)-one]", "IC50": "13 µM and 18 µM"},
      {"compound": "O=c1cc(Sc2ccccc2)c2cc(Cl)ccc2[nH]1", "note": "[Compound 4a1, 6-Chloro-4-(phenylthio)quinolin-2(1H)-one]", "IC50": "5.6 µM"},
      {"compound": "Cc1cc(C)cc(S(=O)(=O)c2cc(=O)[nH]c3ccc(Cl)cc23)c1", "note": "[Compound 4c2, 6-Chloro-4-(3,5-dimethylphenylsulfonyl)quinolin-2(1H)-one]", "IC50": "10 µM"},
      {"compound": "O=c1cc(-c2ccccc2Cl)c2cc(Cl)ccc2[nH]1", "note": "[Compound 5c, 6-Chloro-4-(2-chlorophenyl)quinolin-2(1H)-one]", "IC50": "> 100 µM"}
    ]}
  ]
}
